The results in this text go back to ChEMBL document CHEMBL3085634, “Identification of elaiophylin derivatives from the marine-derived actinomycete Streptomyces sp. 7-145 using PCR-based screening” (2013).

Converted amounts (≈) assume the structure as drawn.

Common to all, as to type: functional
One experiment deals with Morganella morganii. Nature of the experiment: Antibacterial activity against beta-lactamase producing Morganella morganii ATCC 25830 assessed as growth inhibition after 18 hrs by agar dilution method. The settings on record: ATCC 25830, 18 h. (In general: In agar dilution, organisms are placed on agar that contains the substance at set levels.)
The test system of experiment [1] is Enterococcus faecalis. Nature of the experiment: Antibacterial activity against vancomycin-sensitive Enterococcus faecalis 09-8 assessed as growth inhibition after 18 hrs by agar dilution method. The settings on record: 09-8, 18 h.
The subject of experiment [2] is Staphylococcus aureus. Nature of the experiment: Antibacterial activity against methicillin-sensitive Staphylococcus aureus 09-6 assessed as growth inhibition after 18 hrs by agar dilution method. The following applies: 09-6, 18 h.
Experiment [3] deals with Enterococcus faecalis. Nature of the experiment: Antibacterial activity against vancomycin-resistant Enterococcus faecalis ATCC 51299 assessed as growth inhibition after 18 hrs by agar dilution method. The settings on record: ATCC 51299, 18 h.
For experiment [4], the system named is Staphylococcus aureus. Nature of the experiment: Antibacterial activity against methicillin-resistant Staphylococcus aureus ATCC 33591 assessed as growth inhibition after 18 hrs by agar dilution method. The settings on record: ATCC 33591, 18 h.
Experiment [5] relates to Staphylococcus aureus. Nature of the experiment: Antibacterial activity against methicillin-resistant Staphylococcus aureus 09-13 assessed as growth inhibition after 18 hrs by agar dilution method. The settings on record: 09-13, 18 h.
The subject of a further experiment is Pseudomonas aeruginosa. Nature of the experiment: Antibacterial activity against beta-lactamase producing Pseudomonas aeruginosa ATCC 27853 assessed as growth inhibition after 18 hrs by agar dilution method. The settings on record: ATCC 27853, 18 h.
In experiment [6] the test system is Escherichia coli. Nature of the experiment: Antibacterial activity against extended spectrum beta-lactamase producing Escherichia coli 09-1 assessed as growth inhibition after 18 hrs by agar dilution method. The settings on record: 09-1, 18 h.
Experiment [7] relates to Staphylococcus aureus. Nature of the experiment: Antibacterial activity against methicillin-sensitive Staphylococcus aureus ATCC 29213 assessed as growth inhibition after 18 hrs by agar dilution method. The settings on record: ATCC 29213, 18 h.
Experiment [8] concerns Staphylococcus epidermidis. Nature of the experiment: Antibacterial activity against methicillin-resistant Staphylococcus epidermidis 09-3 assessed as growth inhibition after 18 hrs by agar dilution method. The following applies: 09-3, 18 h.
Experiment [9] deals with Staphylococcus epidermidis. Nature of the experiment: Antibacterial activity against methicillin-sensitive Staphylococcus epidermidis ATCC 12228 assessed as growth inhibition after 18 hrs by agar dilution method. The following applies: ATCC 12228, 18 h.
In experiment [10] the test system is Klebsiella pneumoniae. Nature of the experiment: Antibacterial activity against New Delhi metallo-beta-lactamase 1 producing Klebsiella pneumoniae ATCC BAA-2146 assessed as growth inhibition after 18 hrs by agar dilution method. The following applies: ATCC BAA-2146, 18 h.
The subject of experiment [11] is Klebsiella pneumoniae. Nature of the experiment: Antibacterial activity against extended spectrum beta-lactamase producing Klebsiella pneumoniae ATCC 700603 assessed as growth inhibition after 18 hrs by agar dilution method. The settings on record: ATCC 700603, 18 h.
In experiment [12] the test system is Enterococcus faecium. Nature of the experiment: Antibacterial activity against vancomycin-sensitive Enterococcus faecium 09-10 assessed as growth inhibition after 18 hrs by agar dilution method. The settings on record: 09-10, 18 h.
For experiment [13], the system named is Escherichia coli. Nature of the experiment: Antibacterial activity against beta-lactamase producing Escherichia coli 09-20 assessed as growth inhibition after 18 hrs by agar dilution method. The settings on record: 09-20, 18 h.
Experiment [14] deals with Enterococcus faecium. Nature of the experiment: Antibacterial activity against vancomycin-resistant Enterococcus faecium ATCC 700221 assessed as growth inhibition after 18 hrs by agar dilution method. The following applies: ATCC 700221, 18 h.
Experiment [15] concerns Enterococcus faecalis. Nature of the experiment: Antibacterial activity against vancomycin-sensitive Enterococcus faecalis ATCC 29212 assessed as growth inhibition after 18 hrs by agar dilution method. The settings on record: ATCC 29212, 18 h.
Experiment [16] concerns Staphylococcus aureus. Nature of the experiment: Antibacterial activity against methicillin-resistant Staphylococcus aureus R6101 assessed as growth inhibition after 18 hrs by agar dilution method. The settings on record: R6101, 18 h.
Experiment [17] concerns Enterococcus faecalis. Nature of the experiment: Antibacterial activity against vancomycin-resistant Enterococcus faecalis W4138 assessed as growth inhibition after 18 hrs by agar dilution method. The following applies: W4138, 18 h.
In experiment [18] the test system is Enterococcus faecalis. Nature of the experiment: Antibacterial activity against vancomycin-resistant Enterococcus faecalis R6512 assessed as growth inhibition after 18 hrs by agar dilution method. The following applies: R6512, 18 h.
In experiment [19] the test system is Staphylococcus aureus. Nature of the experiment: Antibacterial activity against thiostrepton-resistant Staphylococcus aureus ATCC 6538P assessed as growth inhibition after 18 hrs by agar dilution method.
The next experiment relates to Micrococcus luteus. Nature of the experiment: Antibacterial activity against apramycin-resistant Micrococcus luteus ATCC 10240 assessed as growth inhibition after 18 hrs by agar dilution method. The following applies: ATCC 10240, 18 h.

The term MIC denotes the lowest concentration that inhibits growth of the organism. Regarding `CC[C@H]1OC(=O)[C@H](C)[C@@H](O[C@H]2C[C@@](C)(OC)[C@@H](O)[C@H](C)O2)[C@H](C)[C@@H](O[C@@H]2O[C@H](C)C[C@H](N(C)C)[C@H]2O)[C@](C)(O)C[C@@H](C)C(=O)[C@H](C)[C@@H](O)[C@]1(C)O` [ERYTHROMYCIN], the MIC in the experiment with Morganella morganii is > 256 µg/mL; in the experiment on Enterococcus faecalis [1] it was 32 µg/mL (≈ 43.6 µM); in the experiment with Staphylococcus aureus [2], 0.25 µg/mL (≈ 0.341 µM); in the experiment with Enterococcus faecalis [3] it was 8 µg/mL (≈ 10.9 µM); in the experiment on Staphylococcus aureus [4] it was 256 µg/mL (≈ 349 µM); with Staphylococcus aureus [5], > 256 µg/mL. In addition, the MIC was > 256 µg/mL in the experiment on Pseudomonas aeruginosa; > 256 µg/mL with Escherichia coli [6]; 0.25 µg/mL (≈ 0.341 µM) in the experiment on Staphylococcus aureus [7]; > 256 µg/mL in experiment [8]; 16 µg/mL (≈ 21.8 µM) in [9]; > 256 µg/mL with Klebsiella pneumoniae [10]. Besides, the MIC in the experiment with Klebsiella pneumoniae [11] was > 256 µg/mL; with Enterococcus faecium [12] it was > 256 µg/mL; in the experiment with Escherichia coli [13], > 256 µg/mL; with Enterococcus faecium [14], 64 µg/mL (≈ 87.2 µM); in the experiment on Enterococcus faecalis [15], 16 µg/mL (≈ 21.8 µM).

On to `CC[C@@H]1[C@@H](C)O[C@@](OC)([C@@H](C)[C@H](O)[C@H](C)[C@H]2OC(=O)/C=C/C=C/[C@H](C)[C@@H]([C@@H](C)[C@@H](O)[C@H](C)[C@@]3(OC)C[C@@H](O[C@H]4C[C@H](O)[C@H](O)[C@H](C)O4)[C@H](C)[C@@H](C)O3)OC(=O)/C=C/C=C/[C@@H]2C)C[C@H]1O[C@H]1C[C@H](O)[C@H](O)[C@H](C)O1`, for which the MIC is > 128 µg/mL in the experiment on Morganella morganii; 64 µg/mL (≈ 61.6 µM) in the experiment on Enterococcus faecalis [1]; 32 µg/mL (≈ 30.8 µM) in the experiment on Staphylococcus aureus [2]; 64 µg/mL (≈ 61.6 µM) with Enterococcus faecalis [3]; 32 µg/mL (≈ 30.8 µM) in the experiment with Staphylococcus aureus [4]; 16 µg/mL (≈ 15.4 µM) in the experiment on Staphylococcus aureus [16]. Also, the MIC in the experiment on Staphylococcus aureus [5] was 32 µg/mL (≈ 30.8 µM); in the experiment with Pseudomonas aeruginosa it was > 128 µg/mL; in the experiment with Escherichia coli [6] it was > 128 µg/mL; in the experiment on Staphylococcus aureus [7], 32 µg/mL (≈ 30.8 µM); in experiment [8], 64 µg/mL (≈ 61.6 µM); in experiment [9], 64 µg/mL (≈ 61.6 µM). The MIC is > 128 µg/mL with Klebsiella pneumoniae [10]; 64 µg/mL (≈ 61.6 µM) in the experiment on Enterococcus faecalis [17]; > 128 µg/mL in the experiment on Klebsiella pneumoniae [11]; 64 µg/mL (≈ 61.6 µM) in the experiment with Enterococcus faecium [12]; > 128 µg/mL with Enterococcus faecalis [18]; > 128 µg/mL in the experiment on Staphylococcus aureus [19]. For the same compound, the MIC with Escherichia coli [13] was > 128 µg/mL; in the experiment on Micrococcus luteus, 128 µg/mL (≈ 123 µM); in the experiment on Enterococcus faecium [14], 64 µg/mL (≈ 61.6 µM); in the experiment with Enterococcus faecalis [15], 64 µg/mL (≈ 61.6 µM).

Regarding `CC[C@@H]1[C@@H](C)O[C@@](OC)([C@@H](C)[C@H](O)[C@H](C)[C@H]2OC(=O)/C=C/C=C/[C@H](C)[C@@H]([C@@H](C)[C@@H](O)[C@H](C)[C@@]3(OC)C[C@@H](O[C@H]4C[C@H](O)[C@H](O)[C@H](C)O4)[C@H](CC)[C@@H](C)O3)OC(=O)/C=C/C=C/[C@@H]2C)C[C@H]1O[C@H]1C[C@H](O)[C@H](O)[C@H](C)O1`, the minimum inhibitory concentration (MIC) with Morganella morganii was > 256 µg/mL; in the experiment on Pseudomonas aeruginosa, > 256 µg/mL; in the experiment with Escherichia coli [6], > 256 µg/mL; in the experiment with Klebsiella pneumoniae [10], > 256 µg/mL; with Klebsiella pneumoniae [11], > 256 µg/mL; with Enterococcus faecium [12], 32 µg/mL (≈ 30.4 µM). For the same compound, in the experiment with Escherichia coli [13], the MIC was > 256 µg/mL.

Regarding `Cc1onc(-c2ccccc2)c1C(=O)N[C@@H]1C(=O)N2[C@@H]1SC(C)(C)[C@@H]2C(=O)O` [OXACILLIN], the MIC was 256 µg/mL (≈ 638 µM) in the experiment with Morganella morganii; > 256 µg/mL in the experiment on Enterococcus faecalis [1]; 0.5 µg/mL (≈ 1.25 µM) in the experiment with Staphylococcus aureus [2]; > 256 µg/mL in the experiment on Enterococcus faecalis [3]; > 256 µg/mL in the experiment with Staphylococcus aureus [4]; > 256 µg/mL in the experiment on Staphylococcus aureus [16]. Besides, the minimal inhibitory concentration (MIC) is > 256 µg/mL in the experiment with Staphylococcus aureus [5]; > 256 µg/mL in the experiment on Pseudomonas aeruginosa; > 256 µg/mL in the experiment on Escherichia coli [6]; 0.5 µg/mL (≈ 1.25 µM) with Staphylococcus aureus [7]; > 256 µg/mL in experiment [8]; > 256 µg/mL in [9]. For the same compound, the minimum inhibitory concentration (MIC) in the experiment on Klebsiella pneumoniae [10] is > 256 µg/mL; in the experiment on Klebsiella pneumoniae [11], > 256 µg/mL; in the experiment with Enterococcus faecium [12], > 256 µg/mL; in the experiment with Escherichia coli [13], > 256 µg/mL; in the experiment with Enterococcus faecium [14] it was > 256 µg/mL; with Enterococcus faecalis [15], 4 µg/mL (≈ 9.96 µM).
